Laboratory results from US7964399B2, “Cell line comprising vector encoding truncated FLK-1 receptor” (Max-Planck-Gesellschaft zur Forderung der Wissenschaften …, priority 1992, dated 2011).
“Also recorded” adds a separate entry of the source.

Experiments:
Flk-1 [1] = target: T1, Flk-1 (Mus musculus, UniProt P35918, P25T); assay: Cellular Flk-1 assay: VEGF-stimulated Flk-1 receptor autophosphorylation, antiphosphotyrosine Western blot; assay type: cell-based; set-up: expressed in transfected cells; host or cells: NIH 3T3 (3T3 Flk-1 cell line); conditions: test concentration 100 μM, FIG. 17, NIH3T3 cells expressing Flk-1
T1 sequence (P35918 with tags, fused parts or gaps P25T limits assumed): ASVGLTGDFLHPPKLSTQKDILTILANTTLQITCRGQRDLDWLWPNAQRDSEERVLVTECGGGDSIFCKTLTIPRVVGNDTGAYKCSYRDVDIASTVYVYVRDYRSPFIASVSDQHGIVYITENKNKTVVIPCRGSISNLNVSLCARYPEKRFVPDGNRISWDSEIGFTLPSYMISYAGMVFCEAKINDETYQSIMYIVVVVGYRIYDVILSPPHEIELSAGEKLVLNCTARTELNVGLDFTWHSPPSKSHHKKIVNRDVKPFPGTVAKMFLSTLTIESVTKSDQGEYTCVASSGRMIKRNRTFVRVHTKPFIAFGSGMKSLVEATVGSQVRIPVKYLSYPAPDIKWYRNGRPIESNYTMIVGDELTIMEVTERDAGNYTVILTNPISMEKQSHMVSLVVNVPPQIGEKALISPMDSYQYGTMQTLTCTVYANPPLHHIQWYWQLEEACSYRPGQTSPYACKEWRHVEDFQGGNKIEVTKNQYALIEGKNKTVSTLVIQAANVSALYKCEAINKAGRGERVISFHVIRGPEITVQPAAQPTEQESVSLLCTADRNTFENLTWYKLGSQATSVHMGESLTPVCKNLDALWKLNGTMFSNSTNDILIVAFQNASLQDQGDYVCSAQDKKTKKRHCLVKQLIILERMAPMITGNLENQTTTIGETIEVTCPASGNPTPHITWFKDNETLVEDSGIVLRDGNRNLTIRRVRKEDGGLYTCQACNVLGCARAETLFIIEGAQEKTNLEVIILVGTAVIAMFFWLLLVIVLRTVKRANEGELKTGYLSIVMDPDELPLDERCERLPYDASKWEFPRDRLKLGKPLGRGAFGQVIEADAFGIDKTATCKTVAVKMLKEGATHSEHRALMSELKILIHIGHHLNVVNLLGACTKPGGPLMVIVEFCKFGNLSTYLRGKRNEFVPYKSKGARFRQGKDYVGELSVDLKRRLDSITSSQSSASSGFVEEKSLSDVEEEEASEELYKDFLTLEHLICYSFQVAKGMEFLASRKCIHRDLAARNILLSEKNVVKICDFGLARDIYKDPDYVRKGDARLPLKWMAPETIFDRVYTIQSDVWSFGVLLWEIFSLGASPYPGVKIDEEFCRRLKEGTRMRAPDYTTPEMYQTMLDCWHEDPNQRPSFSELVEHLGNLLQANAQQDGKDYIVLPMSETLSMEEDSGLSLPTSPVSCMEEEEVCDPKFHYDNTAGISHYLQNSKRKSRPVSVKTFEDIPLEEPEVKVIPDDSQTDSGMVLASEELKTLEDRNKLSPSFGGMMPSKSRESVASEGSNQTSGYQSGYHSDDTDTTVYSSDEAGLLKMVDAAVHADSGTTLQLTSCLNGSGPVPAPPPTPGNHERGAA
Procedure: FIG. 17. Inhibition of VEGF stipulatory activity of Flk-1. Test compounds and VEGF were co-incubated on cells expressing the Flk-1 receptor. The level of tyrosine phosphorylation was measured in a Western blot format using an antiphosphotyrosine antibody. […] (Compounds A7, A8, and A10 were toxic to these cells resulting in cell death.).
Organic compounds that modulate Flk-1 receptor mediated signal transduction can be assayed in a cellular Flk-1 assay wherein modulation of Flk-1 receptor autophosphorylation is measured using an antiphosphotyrosine antibody. In the example shown below, the results are analyzed using a Western blot of electrophoresed cell lysates. Levels of phosphorylation as be measured by other techniques known in the art.
NIH3T3 cells expressing high levels of Flk-1 were seeded in 12-well plates at 250,000 cells/well in DMEM+0.5% calf serum and incubated overnight at 37° C. plus or minus the test substance. […]
For the Western blot assay, forty microliters of saved supernatant per lane were loaded onto a 7.5% SDS-PAGE gel (10 lanes/gel, 1.5 mm thick) and run at 120 V until the dye reached the bottom of the gel. […] Protein bands were detected by soaking the membrane in ECL chemiluminescence system (Amersham Corp., prepared by mixing equal volumes of reagent 1 and 2) for 1 minute and then exposing the film for about 1-10 minutes.

Flk-1 [2] = target: T1, Flk-1; assay: 125I-VEGF competition binding to COS-1 cells transiently expressing Flk-1; set-up: the full-length Flk-1 cDNA was cloned into the mammalian expression vector PCMV; expressed in transfected cells; host or cells: COS-1 (transient, CMV-promoter vector); conditions: for competition with binding of 125I-VEGF: Flk-1 transfected COS-1 cells
[3] = target: murine Flk-1 receptor (fetal liver kinase 1), full length, wild type, 180 kD (mouse) (UniProt P35918); assay: cell-based or functional assay
Chain of murine Flk-1 receptor (fetal liver kinase 1), full length, wild type, 180 kD (mouse) (P35918 other isoform, or with tags, fused parts or gaps limits assumed): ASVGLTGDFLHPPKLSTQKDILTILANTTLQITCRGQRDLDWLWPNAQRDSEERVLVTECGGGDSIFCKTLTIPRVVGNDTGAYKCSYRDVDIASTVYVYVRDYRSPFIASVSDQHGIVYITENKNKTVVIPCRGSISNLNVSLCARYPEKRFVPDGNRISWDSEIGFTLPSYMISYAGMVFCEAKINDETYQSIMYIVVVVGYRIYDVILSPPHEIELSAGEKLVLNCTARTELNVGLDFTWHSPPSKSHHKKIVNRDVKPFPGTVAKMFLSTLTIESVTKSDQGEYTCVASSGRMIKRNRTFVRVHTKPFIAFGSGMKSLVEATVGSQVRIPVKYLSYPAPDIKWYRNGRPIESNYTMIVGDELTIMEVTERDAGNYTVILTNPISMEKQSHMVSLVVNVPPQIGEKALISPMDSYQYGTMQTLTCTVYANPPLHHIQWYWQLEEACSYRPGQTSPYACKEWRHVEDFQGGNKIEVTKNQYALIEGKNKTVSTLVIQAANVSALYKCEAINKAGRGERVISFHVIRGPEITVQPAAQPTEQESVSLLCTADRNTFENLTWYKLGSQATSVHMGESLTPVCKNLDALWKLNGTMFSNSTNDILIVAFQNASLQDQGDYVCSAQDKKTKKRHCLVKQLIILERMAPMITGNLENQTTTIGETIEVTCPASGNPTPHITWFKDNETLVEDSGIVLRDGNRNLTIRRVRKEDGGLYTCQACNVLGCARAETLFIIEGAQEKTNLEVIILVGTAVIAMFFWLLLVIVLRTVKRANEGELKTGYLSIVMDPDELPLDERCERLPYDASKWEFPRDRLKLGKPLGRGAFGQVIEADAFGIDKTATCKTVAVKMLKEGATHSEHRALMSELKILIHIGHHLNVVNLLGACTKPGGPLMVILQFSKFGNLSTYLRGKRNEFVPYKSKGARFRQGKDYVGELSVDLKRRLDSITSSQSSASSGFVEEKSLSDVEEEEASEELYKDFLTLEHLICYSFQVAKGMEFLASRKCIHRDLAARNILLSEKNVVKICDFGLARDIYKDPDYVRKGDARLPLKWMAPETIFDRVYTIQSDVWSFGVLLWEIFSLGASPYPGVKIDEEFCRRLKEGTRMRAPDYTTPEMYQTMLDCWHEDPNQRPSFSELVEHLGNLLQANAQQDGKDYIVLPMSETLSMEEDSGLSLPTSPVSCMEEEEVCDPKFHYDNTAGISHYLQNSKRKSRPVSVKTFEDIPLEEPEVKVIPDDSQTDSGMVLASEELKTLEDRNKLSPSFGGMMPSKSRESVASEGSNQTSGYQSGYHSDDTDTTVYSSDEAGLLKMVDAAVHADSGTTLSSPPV

Flk-1 [4] = target: T1, Flk-1; assay: VEGF-induced autophosphorylation of Flk-1 in COS cells; assay type: cell-based; set-up: expressed in transfected cells; dose or concentration left out as unconfirmed; conditions: COS1 cells transiently expressing Flk-1, stimulated with VEGF
Flk-1 [5] = target: T1, Flk-1; assay: [3H]thymidine incorporation (mitogenic response) in Flk-1-expressing NIH 3T3 cells; assay type: cell-based; set-up: the full-length Flk-1 cDNA was cloned into the mammalian expression vector PCMV; expressed in transfected cells; conditions: 3T3 Flk-1 cell line
Description: The dominant-negative potential of Flk-1 TM was first examined by measuring its influence on the mitogenic response of Flk-1-expressing NIH 3T3 cells after superinfection with the Flk-1 TM virus.

[6] = target: T2, murine Flk-1 receptor (fetal liver kinase 1), full length, wild type, 180 kD (mouse, UniProt P35918 20-1345); assay: competition binding of unlabeled VEGF against 10 pM ^125I-VEGF on COS-1 cells expressing Flk-1, analysis by Munson and Rodbard
T2 construct: Full-length Flk-1 cDNA in pCMV, transiently expressed in COS-1 cells; also stably expressed in NIH 3T3 cells; also called Flk-1 RTK; wild type Flk-1
T2 sequence (P35918 other isoform, or with tags, fused parts or gaps limits assumed): as above
Procedure: FIGS. 9A and 9B. Flk-1 is a receptor for VEGF. […] The cells were lysed, Flk-1 receptor immunoprecipitated, and analyzed by polyacrylamide gel electrophoresis followed by autoradiography. Molecular size markers are indicated in kilodaltons. […] COS cells transiently expressing Flk-1 were removed from the plate and resuspended in binding medium (DMEM, 25 mM Hepes, 0.15% gelatin). […] The cells were washed twice with PBS/0.1% BSA and counted in a gamma counter.
Ligand binding experiments were performed as described previously (Schumacher, R. et al., 1991, J. Biol. Chem. 266: 19288-19295), COS-1 cells were grown in a 15-cm culture dish in DMEM for 48 h after transfection. Cells were then washed carefully with PBS and incubated with 5 ml of 25 mM EDTA in PBS for 10 min. Cells were then removed from the plate, washed once with binding buffer (DMEM, 25 mM HEPES, pH 7.5, 0.15% gelatin) and resuspended in 5 ml of binding buffer to determine the cell number. […] Data obtained were analyzed by the method of Munson, P. J. and Rodbard, D. (1980 Anal. Biochem. 107:220-235).

[7] = target: T3, Flk-1 TM, truncated transdominant-negative Flk-1 receptor mutant (amino acids 1 through 806), 130 kD (mouse, UniProt P35918 20-806); assay: ^125I-VEGF binding to 3T3 Flk-1/Flk-1 TM cells against the parental 3T3 Flk-1 cells
T3 construct: Lacks the 561 C-terminal amino acids of the intracellular kinase domain; keeps the transmembrane domain and 23 residues of the cytoplasmic domain; A BglII/HpaI linker with a stop codon (5' GTC ATG GAT CTT CGT TAA 3') may add or change a few C-terminal residues; Expressed in cells (COS, NIH 3T3); also called truncated Flk-1 receptor; pLXSN Flk-1 TM cl.1
T3 sequence (P35918 other isoform, or with tags, fused parts or gaps mutant): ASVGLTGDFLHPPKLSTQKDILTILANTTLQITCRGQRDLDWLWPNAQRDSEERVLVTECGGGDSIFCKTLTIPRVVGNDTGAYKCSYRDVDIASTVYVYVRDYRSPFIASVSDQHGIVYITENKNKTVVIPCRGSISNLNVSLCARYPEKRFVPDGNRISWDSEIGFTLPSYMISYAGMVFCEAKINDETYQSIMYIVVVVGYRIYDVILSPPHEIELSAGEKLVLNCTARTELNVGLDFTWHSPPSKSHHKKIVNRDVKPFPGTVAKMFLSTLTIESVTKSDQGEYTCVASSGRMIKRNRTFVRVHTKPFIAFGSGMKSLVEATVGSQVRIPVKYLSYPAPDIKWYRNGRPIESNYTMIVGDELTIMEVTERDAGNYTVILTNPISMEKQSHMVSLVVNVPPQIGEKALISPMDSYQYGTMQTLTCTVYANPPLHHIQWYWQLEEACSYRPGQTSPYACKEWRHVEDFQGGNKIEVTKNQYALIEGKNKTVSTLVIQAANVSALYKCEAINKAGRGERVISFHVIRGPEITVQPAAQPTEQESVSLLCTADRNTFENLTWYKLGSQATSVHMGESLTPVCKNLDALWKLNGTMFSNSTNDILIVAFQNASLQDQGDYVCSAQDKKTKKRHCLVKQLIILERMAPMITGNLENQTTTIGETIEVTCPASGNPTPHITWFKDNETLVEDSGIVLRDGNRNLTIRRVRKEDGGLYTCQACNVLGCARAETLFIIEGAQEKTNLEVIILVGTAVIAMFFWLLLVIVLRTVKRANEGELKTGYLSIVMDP

Molecule: c1ccc(-c2cnc3cc4ccccc4cc3n2)cc1 [Compound A14]
- inhibition of VEGF-stimulated Flk-1 receptor phosphorylation (Flk-1 [1]): almost completely; also recorded: completely inhibited

Molecule: PDGF-BB: growth factor used as specificity control in 125I-VEGF competition binding [reference compound]
- competition with binding of 125I-VEGF (Flk-1 [2]): did not compete

Molecule: VEGF (preparation not specified) used for stimulation of cells (ligand)
- [^3H] thymidine incorporation in the 3T3 Flk-1 cell line, EC50 [3]: 0.1 nM
- [^3H] thymidine incorporation in the 3T3 Flk-1 cell line, concentration of maximal stimulation [3]: 500 pM

Molecule: vascular endothelial growth factor [VEGF]
- tyrosine phosphorylation of the 180 kD Flk-1 receptor (Flk-1 [4]): significant induction
- EC50 (Flk-1 [5]): ~0.1 nM
- concentration giving maximal stimulation of [3H] thymidine incorporation (Flk-1 [5]): 500 pM
- Kd (Flk-1 [2]; Flk-1 expressing COS-1 cells, 125I-VEGF, 15° C., 90 min): ~0.1 nM
- competition with binding of 125I-VEGF (Flk-1 [2]): competed

B1: unlabeled VEGF (164 amino acid form), partially purified from conditioned media of COS-1 cells transiently expressing VEGF (ligand, UniProt Q00731-2 27-190, looked up)
chain: APTTEGEQKSHEVIKFMDVYQRSYCRPIETLVDIFQEYPDEIEYIFKPSCVPLMRCAGCCNDEALECVPTSESNITMQIMRIKPHQSQHIGEMSFLQHSRCECRPKKDRTKPENHCEPCSERRKHLFVQDPQTCKCSCKNTDSRCKARQLELNERTCRCDKPRR
notes: Partially purified on heparin columns; also called unlabeled ligand
- Kd [6]: ~0.1 nM

B2: ^125I-labeled recombinant human VEGF (ligand, UniProt P15692-4 27-191, looked up)
chain: APMAEGGGQNHHEVVKFMDVYQRSYCHPIETLVDIFQEYPDEIEYIFKPSCVPLMRCGGCCNDEGLECVPTEESNITMQIMRIKPHQGQHIGEMSFLQHNKCECRPKKDRARQENPCGPCSERRKHLFVQDPQTCKCSCKNTDSRCKARQLELNERTCRCDKPRR
modifications: radioiodinated (^125I) by the procedure of Hunter and Greenwood; positions not given
notes: also called iodinated VEGF
- fold increase of cell surface receptors against the parental 3T3 Flk-1 line [7]: 6 fold
